Measured values published in US6103888A, “Mammalian cationic proteins having lipopolysaccharide binding and anti-coagulant activity” (priority 1999, dated 2000).

Tested on: Salmonella minnesota ReLPS sensitized sheep erythrocytes
Test: LPS hemagglutination assay (MAC)
Type: binding
Protocol: For hemagglutination assays, erythrocytes were sensitized with LPS as follows. One ml of 1% erythrocyte suspension (human 0 type, C3H/HeN mouse or sheep) was mixed with 0.2 ml of LPS solution and incubated at 37° C. for 30 min, followed by washing with phosphate buffered saline (PBS), and then the concentration of suspension was adjusted to 1.0%. In the case of S-LPS, the solution was heated at 100° C. for 1 hour before sensitization of erythrocytes. […] Activity of CAP was expressed as a minimum agglutinating concentration (MAC) of CAP. According to the method of Kirikae et al. (1986) Microbiol. Immunol. 30:269-274, 50 μl of 2-fold serial dilution of Re-LPS was added to 50 μl of 1.0% rabbit erythrocyte suspension, and incubated at 37° C. for 3 hour. Minimum agglutinating concentration of Re-LPS was expressed as 1 HA unit.

Substance	Hemagglutination [MAC], minimum agglutinating concentration [µg/mL]
21-1: synthetic rabbit RNIP fragment, amino acids 135-151 of SEQ ID NO:4 (GLRKRLRKFRNKIKEKL) [Peptide 21-1]	> 125
34-1: synthetic rabbit RNIP fragment, amino acids 140-166 of SEQ ID NO:4 (LRKFRNKIKEKLKKIGQKIQGLLPKLA) [Peptide 34-1]	> 125
50-1: synthetic rabbit RNIP fragment, amino acids 147-171 of SEQ ID NO:4 (IKEKLKKIGQKIQGLLPKLAPRTDY) [Peptide 50-1]	> 125
52-1: synthetic rabbit RNIP fragment, amino acids 143-169 of SEQ ID NO:4 (FRNKIKEKLKKIGQKIQGLLPKLAPRT) [Peptide 52-1]	> 125
52-2: synthetic rabbit RNIP fragment, amino acids 143-170 of SEQ ID NO:4 (FRNKIKEKLKKIGQKIQGLLPKLAPRTD) [Peptide 52-2]	> 125
52-3: synthetic rabbit RNIP fragment, printed as amino acids 132-171 of SEQ ID NO:4 (EPTGLRKRLRKFRNKIKEKLKKIGQKIQGLLPKLAPRTDY) [Peptide 52-3]	> 125
54-1: synthetic rabbit RNIP fragment, amino acids 139-170 of SEQ ID NO:4 (RLRKFRNKIKEKLKKIGQKIQGLLPKLAPRTD) [Peptide 54-1]	> 125
54-2: synthetic rabbit RNIP fragment, amino acids 139-171 of SEQ ID NO:4 (RLRKFRNKIKEKLKKIGQKIQGLLPKLAPRTDY) [Peptide 54-2]	> 125
